Reference: ChEMBL document CHEMBL3526097, “Preclinical disposition of GDC-0973 and prospective and retrospective analysis of human dose and efficacy predictions” (Drug Metab Dispos, 2012)

Test: Efflux ratio of permeability from […] side in MDCK1 cells expressing MDR1 at 10 uM after 2 hrs by LC-MS/MS analysis
Type: ADME, cell-based, Canis lupus familiaris
Settings: dog, mdck1, 2 h

Compound: C[C@H]1O[C@@H](O[C@H]2[C@@H](O)C[C@H](O[C@H]3[C@@H](O)C[C@H](O[C@H]4CC[C@@]5(C)[C@H](CC[C@@H]6[C@@H]5C[C@@H](O)[C@]5(C)[C@@H](C7=CC(=O)OC7)CC[C@]65O)C4)O[C@@H]3C)O[C@@H]2C)C[C@H](O)[C@@H]1O [DIGOXIN]
- Ratio: 72
